Test results as given in patent US11660342B2, “Method for increasing permeability of blood-brain barrier” (POSTECH Research and Business Development Foundation, priority 2020, dated 2023).

How the values were obtained:
[1] = Ultrasound-responsive NO release, real-time NO analysis; format: physicochemical; settings: FIG. 5
Procedure: Subsequently, ultrasound-responsive NO release of the nanogenerator was monitored under physiological conditions (DPBS, pH 7.4, 37° C.). When ultrasound was absent, only a small overall amount (1.53 nmol/mg) of NO was released.

[2] = Behaviour in water (aggregation, solubility); format: physicochemical

ultrasound-responsive nitric oxide release behavior [1]: complete NO-releasability | water solubility [2]: water-insoluble
Compound: CCC(C)N(N=O)c1ccc(N(N=O)C(C)CC)cc1 (centres unmarked) [BNN6, N,N′-di-sec-butyl-N,N′-dinitroso-1,4-phenylenediamine]
